# Measurements published in patent publication US20050147670A1, “Oral disintegrating dosage forms” (IMPAX Laboratories Inc., priority 2002, published 2005).
# Tests used:
# [1] = Bioavailability study of 25/250 mg orally disintegrating tablets in healthy adult volunteers, fasting; type: in vivo; conditions: human, oral, Mean ± SD, 25/250 mg ODT, 36 healthy adult volunteers, plasma; for AUC(0-inf): read-out: AUCinf_obs
# [2] = combination of carbidopa and levodopa, no entacapone; cited from earlier work
SMILES,Cmax [1] [ng/mL],Tmax [1] [h],AUC(0-inf) [1] [ng·h/mL],levodopa half-life without entacapone [2] [h]
C[C@@](Cc1ccc(O)c(O)c1)(NN)C(=O)O [Carbidopa],98.5 ± 38.3,2.8 ± 1,560 ± 197,–
"N[C@@H](Cc1ccc(O)c(O)c1)C(=O)O [Levodopa, (−)-L-α-amino-β-(3,4-dihydroxybenzene) propanoic acid monohydrate]",1470 ± 567,1.7 ± 0.8,4480 ± 1580,1.3
